What follows are molecules tested against T1, Adrenergic receptor alpha-1 (Rattus norvegicus, UniProt P15823+P23944+P43140) (assay: Antagonist activity at alpha1-adrenoceptor in rat anococcygeal muscle assessed as inhibition of phenylephrine-induced contraction).
T1 sequence (P15823 whole entry): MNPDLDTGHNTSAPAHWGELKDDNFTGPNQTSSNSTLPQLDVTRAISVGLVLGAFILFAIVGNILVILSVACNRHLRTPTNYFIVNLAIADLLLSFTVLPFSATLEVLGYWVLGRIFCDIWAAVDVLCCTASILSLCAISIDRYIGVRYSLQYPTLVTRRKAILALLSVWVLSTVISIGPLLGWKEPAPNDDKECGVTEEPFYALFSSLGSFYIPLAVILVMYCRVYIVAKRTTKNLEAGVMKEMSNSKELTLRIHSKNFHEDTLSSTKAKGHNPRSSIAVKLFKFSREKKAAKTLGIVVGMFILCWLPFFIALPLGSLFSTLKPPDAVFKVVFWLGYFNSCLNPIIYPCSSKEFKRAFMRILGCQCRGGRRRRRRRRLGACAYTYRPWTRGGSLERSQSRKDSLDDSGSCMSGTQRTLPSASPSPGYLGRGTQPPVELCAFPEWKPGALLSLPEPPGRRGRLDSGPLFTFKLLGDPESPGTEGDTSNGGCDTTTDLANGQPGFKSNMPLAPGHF
T1 sequence (P23944 whole entry): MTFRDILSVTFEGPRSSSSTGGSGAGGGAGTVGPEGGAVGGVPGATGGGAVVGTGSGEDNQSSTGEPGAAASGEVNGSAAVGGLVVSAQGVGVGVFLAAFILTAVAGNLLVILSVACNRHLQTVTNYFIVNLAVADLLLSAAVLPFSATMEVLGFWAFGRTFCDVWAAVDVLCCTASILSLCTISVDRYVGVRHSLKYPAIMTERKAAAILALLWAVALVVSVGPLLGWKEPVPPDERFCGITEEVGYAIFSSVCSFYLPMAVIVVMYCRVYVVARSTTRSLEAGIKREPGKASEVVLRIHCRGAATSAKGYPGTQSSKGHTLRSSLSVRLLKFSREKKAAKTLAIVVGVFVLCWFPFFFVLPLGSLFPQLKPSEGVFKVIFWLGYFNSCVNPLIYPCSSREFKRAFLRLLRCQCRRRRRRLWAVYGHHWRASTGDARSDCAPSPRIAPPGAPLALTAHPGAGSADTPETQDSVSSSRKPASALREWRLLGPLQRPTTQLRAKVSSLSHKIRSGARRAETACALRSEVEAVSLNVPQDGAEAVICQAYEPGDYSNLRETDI
T1 sequence (P43140 whole entry): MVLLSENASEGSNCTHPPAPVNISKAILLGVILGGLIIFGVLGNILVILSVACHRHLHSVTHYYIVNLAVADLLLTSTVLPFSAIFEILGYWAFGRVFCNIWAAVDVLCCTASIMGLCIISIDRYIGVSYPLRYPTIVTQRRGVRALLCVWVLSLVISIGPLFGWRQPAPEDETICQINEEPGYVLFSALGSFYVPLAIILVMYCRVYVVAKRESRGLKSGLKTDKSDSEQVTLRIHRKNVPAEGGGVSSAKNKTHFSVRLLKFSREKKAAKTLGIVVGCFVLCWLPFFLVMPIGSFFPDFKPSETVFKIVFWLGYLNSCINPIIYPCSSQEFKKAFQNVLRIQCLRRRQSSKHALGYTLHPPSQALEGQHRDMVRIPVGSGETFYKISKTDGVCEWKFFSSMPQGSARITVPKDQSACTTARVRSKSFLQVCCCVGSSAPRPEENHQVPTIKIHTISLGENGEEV
Format: functional

| Structure (SMILES) | pA2 |
| --- | --- |
| O=c1cc(-c2ccc(Cl)cc2)oc2cc(O)ccc12 | 6.845 |
| Cc1ccccc1N1CCN(CCCCOc2ccc3c(=O)cc(-c4ccccc4)oc3c2)CC1 | 7.71 |
| Cc1ccccc1N1CCN(CCCOc2ccc3c(=O)cc(-c4ccc(Cl)cc4)oc3c2)CC1 | 7.772 |
| Cc1ccccc1N1CCN(CCCCOc2ccc3c(=O)cc(-c4ccc(Cl)cc4)oc3c2)CC1 | 7.471 |
| O=c1cc(-c2ccccc2)oc2cc(OCCBr)ccc12 | 6.897 |
| O=c1cc(-c2ccc(Cl)cc2)oc2cc(OCCBr)ccc12 | 6.925 |
| O=c1cc(-c2ccccc2)oc2cc(OCCCBr)ccc12 | 6.409 |
| O=c1cc(-c2ccc(Cl)cc2)oc2cc(OCCCBr)ccc12 | 6.168 |
| O=c1cc(-c2ccccc2)oc2cc(OCCCCBr)ccc12 | 6.538 |
| O=c1cc(-c2ccc(Cl)cc2)oc2cc(OCCCCBr)ccc12 | 6.368 |
| O=c1cc(-c2ccccc2)oc2cc(O)ccc12 [7-HYDROXYFLAVONE] | 6.609 |

More lines, now with the values ahead:

| pA2 | Structure (SMILES) |
| --- | --- |
| 8.526 | O=c1cc(-c2ccccc2)oc2cc(OCCN3CCN(c4ccccc4)CC3)ccc12 |
| 8.177 | O=c1cc(-c2ccccc2)oc2cc(OCCCN3CCN(c4ccccc4)CC3)ccc12 |
| 8.333 | O=c1cc(-c2ccccc2)oc2cc(OCCCCN3CCN(c4ccccc4)CC3)ccc12 |
| 8.647 | Cc1ccc(N2CCN(CCOc3ccc4c(=O)cc(-c5ccccc5)oc4c3)CC2)cc1 |
| 7.684 | Cc1ccc(N2CCN(CCCOc3ccc4c(=O)cc(-c5ccccc5)oc4c3)CC2)cc1 |
| 6.709 | Cc1ccc(N2CCN(CCCCOc3ccc4c(=O)cc(-c5ccccc5)oc4c3)CC2)cc1 |
| 7.383 | Cc1ccccc1N1CCN(CCOc2ccc3c(=O)cc(-c4ccccc4)oc3c2)CC1 |
| 6.93 | Cc1ccccc1N1CCN(CCCOc2ccc3c(=O)cc(-c4ccccc4)oc3c2)CC1 |
| 8.579 | O=c1cc(-c2ccc(Cl)cc2)oc2cc(OCCN3CCN(c4ccccc4)CC3)ccc12 |
| 8.072 | O=c1cc(-c2ccc(Cl)cc2)oc2cc(OCCCN3CCN(c4ccccc4)CC3)ccc12 |
| 7.914 | O=c1cc(-c2ccc(Cl)cc2)oc2cc(OCCCCN3CCN(c4ccccc4)CC3)ccc12 |
| 8.93 | Cc1ccc(N2CCN(CCOc3ccc4c(=O)cc(-c5ccc(Cl)cc5)oc4c3)CC2)cc1 |
| 8.088 | Cc1ccc(N2CCN(CCCOc3ccc4c(=O)cc(-c5ccc(Cl)cc5)oc4c3)CC2)cc1 |
| 8.498 | Cc1ccc(N2CCN(CCCCOc3ccc4c(=O)cc(-c5ccc(Cl)cc5)oc4c3)CC2)cc1 |
| 8.207 | Cc1ccccc1N1CCN(CCOc2ccc3c(=O)cc(-c4ccc(Cl)cc4)oc3c2)CC1 |

Source: ChEMBL document CHEMBL1667817, “Design, synthesis and biological evaluation of new arylpiperazine derivatives bearing a flavone moiety as α1-adrenoceptor antagonists” (Bioorg Med Chem Lett, 2011)
